Results on 17 compounds are retold here after patent US12310975B2, “Modulators of BCL6 proteolysis and associated methods of use” (Arvinas Operations, Inc., priority 2019, dated 2025).

SMILES strings stand for the structures.

In this assay the target is BCL6 (Homo sapiens (Human), UniProt P41182). In words: Immunofluorescence high content imaging of BCL6 degradation in T47D cells. It counts as cell-based. Particulars: T47D cells. Summed up: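 T47D, 3 d compound exposure, 11-pt 3-fold series, top 0.1 or 1 μM final. Fix 4% PFA, Triton permeabilize, anti-BCL6 primary overnight 4 °C, Alexa-488 secondary. High-content imaging 10×, 4 fields/well, top-hat smoothing.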
Compound `CNC(=O)COc1cc2cc(Nc3nc(N4CCN(CC5CCN(c6cccc7c6CN(C6CCC(=O)NC6=O)C7=O)CC5)CC4)ncc3Cl)ccc2n(C(C)C)c1=O` (stereo not shown) [compound 423, 2-{[6-({5-chloro-2-[4-({1-[2-(2,6-dioxopiperidin-3-yl)-1-oxo-2,3-dihydro-1H-isoindol-4-yl]piperidin-4-yl}methyl)piperazin-1-yl]pyrimidin-4-yl}amino)-2-oxo-1-(propan-2-yl)-1,2-dihydroquinolin-3-yl]oxy}-N-methylacetamide] registered a Dmax of no less than 70% and an IC50 of less than 10 nM.

In turn, `CNC(=O)COc1cc2cc(Nc3nc(N4CCC(OC5CC6(C5)CN(c5cccc7c5CN(C5CCC(=O)NC5=O)C7=O)C6)CC4)ncc3Cl)ccc2n(C(C)C)c1=O` (stereo not shown) [compound 424, 2-{[6-({5-chloro-2-[4-({2-[2-(2,6-dioxopiperidin-3-yl)-1-oxo-2,3-dihydro-1H-isoindol-4-yl]-2-azaspiro[3.3]heptan-6-yl}oxy)piperidin-1-yl]pyrimidin-4-yl}amino)-2-oxo-1-(propan-2-yl)-1,2-dihydroquinolin-3-yl]oxy}-N-methylacetamide] came in with a Dmax of no less than 70% and an IC50 of 10 to 50 nM.

The compound `CNC(=O)COc1cc2cc(Nc3nc(N4CCC(CN5CCC6(CC5)CN(c5ccc(C(=O)NC7CCC(=O)NC7=O)c(OC)c5)C6)CC4)ncc3Cl)ccc2n(C(C)C)c1=O` (stereo not shown) [compound 425, 4-[7-({1-[5-chloro-4-({3-[(methylcarbamoyl)methoxy]-2-oxo-1-(propan-2-yl)-1,2-dihydroquinolin-6-yl}amino)pyrimidin-2-yl]piperidin-4-yl}methyl)-2,7-diazaspiro[3.5]nonan-2-yl]-N-(2,6-dioxopiperidin-3-yl)-2-methoxybenzamide] came in with a Dmax of 50 to 70% and an IC50 of less than 10 nM.

In turn, `CNC(=O)COc1cc2cc(Nc3nc(N4CC5(CCN(CC6CCN(c7cccc8c7C(=O)N(C7CCC(=O)NC7=O)C8=O)CC6)CC5)C4)ncc3Cl)ccc2n(C(C)C)c1=O` (stereo not shown) [compound 426, 2-{[6-({5-chloro-2-[7-({1-[2-(2,6-dioxopiperidin-3-yl)-1,3-dioxo-2,3-dihydro-1H-isoindol-4-yl]piperidin-4-yl}methyl)-2,7-diazaspiro[3.5]nonan-2-yl]pyrimidin-4-yl}amino)-2-oxo-1-(propan-2-yl)-1,2-dihydroquinolin-3-yl]oxy}-N-methylacetamide] yielded a Dmax of no less than 70%.

As for `CNC(=O)COc1cc2cc(Nc3nc(N4CCC5(CC4)CC(OC4CCN(c6cccc7c6CN(C6CCC(=O)NC6=O)C7=O)CC4)C5)ncc3Cl)ccc2n(C(C)C)c1=O` (stereo not shown) [compound 427, 2-{[6-({5-chloro-2-[2-({1-[2-(2,6-dioxopiperidin-3-yl)-1-oxo-2,3-dihydro-1H-isoindol-4-yl]piperidin-4-yl}oxy)-7-azaspiro[3.5]nonan-7-yl]pyrimidin-4-yl}amino)-2-oxo-1-(propan-2-yl)-1,2-dihydroquinolin-3-yl]oxy}-N-methylacetamide], the Dmax was no less than 70% and the half-maximal inhibitory concentration (IC50) was less than 10 nM.

Regarding `CNC(=O)COc1cc2cc(Nc3nc(N4CCC(CN5CCC(c6cc(C(=O)N7CCC7)cc(N7CCC(=O)NC7=O)c6)CC5)CC4)ncc3Cl)ccc2n(C(C)C)c1=O` [compound 428, 2-{[6-({2-[4-({4-[3-(azetidine-1-carbonyl)-5-(2,4-dioxo-1,3-diazinan-1-yl)phenyl]piperidin-1-yl}methyl)piperidin-1-yl]-5-chloropyrimidin-4-yl}amino)-2-oxo-1-(propan-2-yl)-1,2-dihydroquinolin-3-yl]oxy}-N-methylacetamide], the IC50 is no less than 100 nM.

`CNC(=O)COc1cc2cc(Nc3nc(N4CCC(OC5CC6(C5)CN(c5ccc(C(=O)NC7CCC(=O)NC7=O)c(OC)c5)C6)CC4)ncc3Cl)ccc2n(C(C)C)c1=O` (stereo not shown) [compound 429, 4-[6-({1-[5-chloro-4-({3-[(methylcarbamoyl)methoxy]-2-oxo-1-(propan-2-yl)-1,2-dihydroquinolin-6-yl}amino)pyrimidin-2-yl]piperidin-4-yl}oxy)-2-azaspiro[3.3]heptan-2-yl]-N-(2,6-dioxopiperidin-3-yl)-2-methoxybenzamide] registered a maximal degradation (Dmax) of no less than 70% and a half-maximal inhibitory concentration (IC50) of less than 10 nM.

As to `CNC(=O)COc1cc2cc(Nc3nc(N4CCC(OC5CC6(C5)CN(c5cccc(C(=O)NC7CCC(=O)NC7=O)c5F)C6)CC4)ncc3Cl)ccc2n(C(C)C)c1=O` (stereo not shown) [compound 430, 3-[6-({1-[5-chloro-4-({3-[(methylcarbamoyl)methoxy]-2-oxo-1-(propan-2-yl)-1,2-dihydroquinolin-6-yl}amino)pyrimidin-2-yl]piperidin-4-yl}oxy)-2-azaspiro[3.3]heptan-2-yl]-N-(2,6-dioxopiperidin-3-yl)-2-fluorobenzamide], the Dmax lay within 50 to 70% and the IC50 fell in the range of 10 to 50 nM.

Compound `CNC(=O)COc1cc2cc(Nc3nc(N4CCC(OC5CC6(CCN(c7ccc8c(c7)CN(C7CCC(=O)NC7=O)C8=O)CC6)C5)CC4)ncc3Cl)ccc2n(C(C)C)c1=O` (stereo not shown) [compound 431, 2-{[6-({5-chloro-2-[4-({7-[2-(2,6-dioxopiperidin-3-yl)-1-oxo-2,3-dihydro-1H-isoindol-5-yl]-7-azaspiro[3.5]nonan-2-yl}oxy)piperidin-1-yl]pyrimidin-4-yl}amino)-2-oxo-1-(propan-2-yl)-1,2-dihydroquinolin-3-yl]oxy}-N-methylacetamide] came in with a maximal degradation (Dmax) of 50 to 70% and a half-inhibitory concentration (IC50) of less than 10 nM.

`CNC(=O)COc1cc2cc(Nc3nc(N4CCC(OC5CC6(CCN(c7ccc(C(=O)NC8CCC(=O)NC8=O)c(OC)c7)CC6)C5)CC4)ncc3Cl)ccc2n(C(C)C)c1=O` (stereo not shown) [compound 432, 4-[2-({1-[5-chloro-4-({3-[(methylcarbamoyl)methoxy]-2-oxo-1-(propan-2-yl)-1,2-dihydroquinolin-6-yl}amino)pyrimidin-2-yl]piperidin-4-yl}oxy)-7-azaspiro[3.5]nonan-7-yl]-N-(2,6-dioxopiperidin-3-yl)-2-methoxybenzamide]: the greatest degradation seen (Dmax) was no less than 70% and the IC50 lay within 10 to 50 nM.

In turn, `CNC(=O)COc1cc2cc(Nc3nc(N4CCC(OC5CC6(CCN(c7cccc(C(=O)NC8CCC(=O)NC8=O)c7F)CC6)C5)CC4)ncc3Cl)ccc2n(C(C)C)c1=O` (stereo not shown) [compound 433, 3-[2-({1-[5-chloro-4-({3-[(methylcarbamoyl)methoxy]-2-oxo-1-(propan-2-yl)-1,2-dihydroquinolin-6-yl}amino)pyrimidin-2-yl]piperidin-4-yl}oxy)-7-azaspiro[3.5]nonan-7-yl]-N-(2,6-dioxopiperidin-3-yl)-2-fluorobenzamide] registered a Dmax of no less than 70%.

Consider `CNC(=O)COc1cc2cc(Nc3nc(N4CCC(OC5CCC6(CC5)CN(c5cccc7c5C(=O)N(C5CCC(=O)NC5=O)C7=O)C6)CC4)ncc3Cl)ccc2n(C(C)C)c1=O` (stereo not shown) [compound 434, 2-{[6-({5-chloro-2-[4-({2-[2-(2,6-dioxopiperidin-3-yl)-1,3-dioxo-2,3-dihydro-1H-isoindol-4-yl]-2-azaspiro[3.5]nonan-7-yl}oxy)piperidin-1-yl]pyrimidin-4-yl}amino)-2-oxo-1-(propan-2-yl)-1,2-dihydroquinolin-3-yl]oxy}-N-methylacetamide], for which the Dmax was in the range of 50 to 70% and the IC50 is less than 10 nM.

The compound `CNC(=O)COc1cc2cc(Nc3nc(N4CCC(CN5CC6(CCN(c7ccc8c(c7)CN(C7CCC(=O)NC7=O)C8=O)CC6)C5)CC4)ncc3Cl)ccc2n(C(C)C)c1=O` (stereo not shown) [compound 436, 2-{[6-({5-chloro-2-[4-({7-[2-(2,6-dioxopiperidin-3-yl)-1-oxo-2,3-dihydro-1H-isoindol-5-yl]-2,7-diazaspiro[3.5]nonan-2-yl}methyl)piperidin-1-yl]pyrimidin-4-yl}amino)-2-oxo-1-(propan-2-yl)-1,2-dihydroquinolin-3-yl]oxy}-N-methylacetamide] came in with a Dmax of no less than 70% and an IC50 of less than 10 nM.

The compound `CNC(=O)COc1cc2cc(Nc3nc(N4CCC(CN5CCC6(CCN(c7ccc8c(c7)CN(C7CCC(=O)NC7=O)C8=O)C6)C5)CC4)ncc3Cl)ccc2n(C(C)C)c1=O` (stereo not shown) [compound 437, 2-{[6-({5-chloro-2-[4-({7-[2-(2,6-dioxopiperidin-3-yl)-1-oxo-2,3-dihydro-1H-isoindol-5-yl]-2,7-diazaspiro[4.4]nonan-2-yl}methyl)piperidin-1-yl]pyrimidin-4-yl}amino)-2-oxo-1-(propan-2-yl)-1,2-dihydroquinolin-3-yl]oxy}-N-methylacetamide] showed a Dmax of no less than 70% and a half-maximal inhibitory concentration (IC50) of less than 10 nM.

In the case of `CNC(=O)COc1cc2cc(Nc3nc(N4CCC(CN5CC6(CCN(c7ccc(C(=O)NC8CCC(=O)NC8=O)c(OC)c7)CC6)C5)CC4)ncc3Cl)ccc2n(C(C)C)c1=O` (stereo not shown) [compound 438, 4-[2-({1-[5-chloro-4-({3-[(methylcarbamoyl)methoxy]-2-oxo-1-(propan-2-yl)-1,2-dihydroquinolin-6-yl}amino)pyrimidin-2-yl]piperidin-4-yl}methyl)-2,7-diazaspiro[3.5]nonan-7-yl]-N-(2,6-dioxopiperidin-3-yl)-2-methoxybenzamide], the Dmax is no less than 70% and the IC50 was in the range of 10 to 50 nM.

In turn, `CNC(=O)COc1cc2cc(Nc3nc(N4CCC(CN5CC6(CCN(c7cccc8c7C(=O)N(C7CCC(=O)NC7=O)C8=O)CC6)C5)CC4)ncc3Cl)ccc2n(C(C)C)c1=O` (stereo not shown) [compound 439, 2-{[6-({5-chloro-2-[4-({7-[2-(2,6-dioxopiperidin-3-yl)-1,3-dioxo-2,3-dihydro-1H-isoindol-4-yl]-2,7-diazaspiro[3.5]nonan-2-yl}methyl)piperidin-1-yl]pyrimidin-4-yl}amino)-2-oxo-1-(propan-2-yl)-1,2-dihydroquinolin-3-yl]oxy}-N-methylacetamide] had a Dmax of 50 to 70% and a half-inhibitory concentration (IC50) of less than 10 nM.

Consider `CNC(=O)COc1cc2cc(Nc3nc(N4CCC(CN5CC6(CCN(c7cccc(C(=O)NC8CCC(=O)NC8=O)c7F)CC6)C5)CC4)ncc3Cl)ccc2n(C(C)C)c1=O` (stereo not shown) [compound 440, 3-[2-({1-[5-chloro-4-({3-[(methylcarbamoyl)methoxy]-2-oxo-1-(propan-2-yl)-1,2-dihydroquinolin-6-yl}amino)pyrimidin-2-yl]piperidin-4-yl}methyl)-2,7-diazaspiro[3.5]nonan-7-yl]-N-(2,6-dioxopiperidin-3-yl)-2-fluorobenzamide], for which the maximal degradation (Dmax) was no less than 70% and the half-maximal inhibitory concentration (IC50) is less than 10 nM.
